PubChem BioAssay (NCI)
Several values for one entry are separate records, joined by “and”; a condition that tells them apart may be missing. Equal entries are not always repeated.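 1) Cells in 96-well plates. 2) Compound, 48 h, 5 concentrations. 3) Linear interpolation between surrounding doses. 4) Unreached endpoint = highest concentration. GI50 is the concentration that inhibits growth by half. TGI: concentration producing complete growth inhibition.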

Tests used:
Experiment in all cases: inhibition of tumour cell growth, NCI panel, 48 h
[1] = tested on: K-562 leukemia
[2] = tested on: M14 melanoma
[3] = tested on: DMS 114 small cell lung
[4] = tested on: HS 578T breast
[5] = tested on: HL-60(TB) leukemia
[6] = tested on: PC-3 prostate
[7] = tested on: SF-295 CNS
[8] = tested on: MDA-MB-435
[9] = tested on: DMS 273 small cell lung
[10] = tested on: MOLT-4 leukemia

| SMILES | TGI [1] | TGI [2] | TGI [3] | TGI [4] | TGI [5] | TGI [6] | TGI [7] | TGI [8] | TGI [9] | TGI [10] | GI50 [1] | GI50 [2] | GI50 [6] | GI50 [8] | GI50 [3] | GI50 [5] | GI50 [7] | GI50 [9] | GI50 [10] |
| --- | --- | --- | --- | --- | --- | --- | --- | --- | --- | --- | --- | --- | --- | --- | --- | --- | --- | --- | --- |
| N#Cc1c(-c2ccc(Cl)cc2)c(-c2ccc(Cl)cc2)nn(CCOC(=O)CCC(=O)O)c1=O | 41 µM | 28.5 µM | 11.8 µM | 59.7 µM | 10.5 µM | > 48.4 µM | 16.9 µM | 0.193 µM | 14.7 µM | 41.3 µM | – | – | – | – | – | – | – | – | – |
| COc1ccc2cc3[n+](cc2c1OC)CCc1cc2c(cc1-3)OCO2 | > 100 µM and > 49.7 µM and 199 µM | – | > 64.8 µM and 76.7 µM | > 100 µM and 87.1 µM and 40.7 µM | – | > 100 µM | > 100 µM and 147 µM | 25.8 µM and 27 µM and 40.5 µM | 73.7 µM and 49.4 µM | – | 12.3 µM and 11 µM and 23.5 µM | 16.9 µM | 6.61 µM | 7.35 µM | – | – | – | – | – |
| CCC[CH2][Sn]1([CH2]CCC)[O]C(=O)c2cccc(OC)c2[O]1 | 1.16 µM | 1.56 µM | 0.624 µM | – | 0.98 µM | – | 2.27 µM | – | 1.96 µM | 1.36 µM | 0.0719 µM | 0.422 µM | – | – | 0.196 µM | 0.106 µM | 1.08 µM | 0.569 µM | 0.217 µM |
| C/C=C(\CCC1NCCc2c1[nH]c1ccccc21)[Si](C)(C)C (configuration not stated) | 9.29 µM | 8.8 µM and 3.66 µM | 10.8 µM and 3.51 µM | 6.28 µM | 13.2 µM and 3.3 µM | 16.1 µM | 17.5 µM and 5.52 µM | 11.1 µM | 11.3 µM and 4.07 µM | 13.8 µM and 8.98 µM | – | 4.65 µM and 1.82 µM | – | – | 5.76 µM and 1.83 µM | 6.28 µM and 1.51 µM | 7.13 µM and 2.32 µM | 5.99 µM and 1.93 µM | – |
| O=C1C2C(C(=O)N1c1ccccc1)C1(c3ccccc3)OC2(c2ccccc2)c2ccccc21 (configuration not stated) | > 100 µM | > 100 µM | > 100 µM | – | > 100 µM | – | > 100 µM | – | > 100 µM | > 100 µM | – | – | – | – | – | – | – | – | – |
